Assay results from patent US9375010B2 (priority 2013, dated 2016).

Assays:
Phytophthora infestans = type: in vivo; conditions: 500 ppm active ingredient, preventive spray on young tomato plants, evaluated 5 days after inoculation
[1] = log P by HPLC on reversed phase columns (EEC directive 79/831 Annex V.A8); type: physicochemical; conditions: method [a]: LC-MS at pH 2.7, 0.1% formic acid in water / acetonitrile gradient, Table 1 compounds; for chromatographic logP: reversed phase HPLC column
Procedure: Calibration was done with not branched alkan2-ones (with 3 to 16 carbon atoms) with known log P-values (measurement of log P values using retention times with linear interpolation between successive alkanones). lambda-maX-values were determined using UV-spectra from 200 nm to 400 nm and the peak values of the chromatographic signals.

Septoria tritici = test: In vivo preventive test on Septoria tritici (leaf spot on wheat); conditions: 500 ppm active ingredient, preventive spray on young wheat plants, evaluated 24 days after inoculation
Procedure: The tested active ingredients are prepared by homogenization in a mixture of acetone/Dimethyl sulfoxide/tween®, and then diluted with water to obtain the desired active material concentration.
The young plants of wheat are treated by spraying the active ingredient prepared as described above. Control plants are treated only with an aqueous solution of acetone/Dimethyl sulfoxide/tween®.
After 24 hours, the plants are contaminated by spraying the leaves with an aqueous suspension of Septoria tritici spores. The contaminated wheat plants are incubated for 72 hours at 18° C. and at 100% relative humidity and then for 21 days at 20° C. and at 90% relative humidity.
The test is evaluated 24 days after the inoculation. 0% means an efficacy which corresponds to that of the control plants while an efficacy of 100% means that no disease is observed.

Plasmopara viticola = test: Plasmopara test (grapevines)/preventive; type: in vivo; conditions: 10 ppm active ingredient, preventive spray on young grapevine plants, evaluated 6 days after inoculation
Procedure: To produce a suitable preparation of active compound, 1 part by weight of active compound is mixed with the stated amounts of solvent and emulsifier, and the concentrate is diluted with water to the desired concentration.
To test for preventive activity, young plants are sprayed with the preparation of active compound at the stated rate of application. After the spray coating has dried on, the plants are inoculated with an aqueous spore suspension of Plasmopara viticola and then remain for 1 day in an incubation cabinet at approximately 20° C. and a relative atmospheric humidity of 100%. The plant is subsequently placed for 4 days in a greenhouse at approximately 21° C. and a relative atmospheric humidity of approximately 90%. The plants are then misted and placed for 1 day in an incubation cabinet.
The test is evaluated 6 days after the inoculation. 0% means an efficacy which corresponds to that of the untreated control, while an efficacy of 100% means that no disease is observed.

Row | SMILES | % efficacy (Phytophthora infestans) [%] | LogP [1] | % efficacy (Septoria tritici) [%] | chromatographic logP [1] | % efficacy (Plasmopara viticola) [%]
1 | CC(=NO)Nc1cccc(CO/N=C(/c2ccccc2)c2nc(=O)on2C)n1 [Example 1] | 99 | 1.29^[a] | – | – | –
2 | CC(=NO)Nc1cccc(CO/N=C(/c2ccccc2)c2noc(=O)n2C)n1 [Example 2, N′-hydroxy-N-{6-[({[(Z)-(4-methyl-5-oxo-4,5-dihydro-1,2,4-oxadiazol-3-yl)(phenyl)methylene]amino}oxy)methyl]pyridin-2-yl}ethanimidamide] | 100 | – | 71 | 1.86 | –
3 | CC(=NOCC1CC1)Nc1cccc(CO/N=C(/c2ccccc2)c2noc(=O)n2C)n1 [Example 3, N′-(cyclopropylmethoxy)-N-{6-[({[(Z)-(4-methyl-5-oxo-4,5-dihydro-1,2,4-oxadiazol-3-yl)(phenyl)methylene]amino}oxy)methyl]pyridin-2-yl}ethanimidamide] | 99 | – | – | 3.39 | –
4 | Cn1oc(=O)nc1/C(=N\OCc1cccc(C#Cc2ccccc2)n1)c1ccccc1 [Example 4, 2-methyl-3-[(Z)-phenyl({[6-(phenylethynyl)pyridin-2-yl]methoxy}imino)methyl]-1,2,4-oxadiazol-5(2H)-one] | 98 | – | – | 3.63 | –
5 | CCCCON=C(C)Nc1cccc(CO/N=C(/c2ccccc2)c2nc(=O)on2C)n1 [Example 5] | – | 3.35^[a] | – | – | –
6 | Cn1oc(=O)nc1/C(=N\OCc1cccc(C#CC2CC2)n1)c1ccccc1 [Example 6] | – | 3.02^[a] | – | – | –
7 | CCCCON=C(C)Nc1cccc(CO/N=C(/c2ccccc2)c2noc(=O)n2C)n1 [Example 7] | 100 | 3.69^[a] | – | – | –
8 | CC(=NOCc1ccccc1)Nc1cccc(CO/N=C(/c2ccccc2)c2nc(=O)on2C)n1 [Example 8] | 100 | 3.09^[a] | – | – | 92
9 | CC(=NOCc1ccccc1)Nc1cccc(CO/N=C(/c2ccccc2)c2noc(=O)n2C)n1 [Example 9] | 100 | 3.73^[a] | – | – | –
10 | CCCCC#Cc1cccc(CO/N=C(/c2ccccc2)c2nc(=O)on2C)n1 [Example 10] | 100 | 3.81^[a] | – | – | 96
11 | Cn1oc(=O)nc1/C(=N\OCc1cccc(C#CC(C)(C)C)n1)c1ccccc1 [Example 11] | 100 | 3.72^[a] | – | – | 100
12 | Cn1oc(=O)nc1/C(=N\OCc1csc(C#CC2CC2)n1)c1ccccc1 [Example 12, 3-[(Z)-({[2-(cyclopropylethynyl)-1,3-thiazol-4-yl]methoxy}imino)(phenyl)methyl]-2-methyl-1,2,4-oxadiazol-5(2H)-one] | 100 | – | – | 3.13 | 73
13 | Cn1c(/C(=N\OCc2cccc(C#CC3CC3)n2)c2ccccc2)noc1=O [Example 13] | – | 3.65^[a] | – | – | –
14 | Cn1oc(=O)nc1/C(=N\OCc1csc(C#CC2CCCCC2)n1)c1ccccc1 [Example 14] | – | 4.44^[a] | – | – | –
15 | Cn1c(/C(=N\OCc2cccc(C#Cc3ccccc3)n2)c2ccccc2)noc1=O [Example 15] | 80 | 4.26^[a] | – | – | –
16 | Cn1c(/C(=N\OCc2csc(C#CC3CCCCC3)n2)c2ccccc2)noc1=O [Example 16] | 78 | 5.08^[a] | – | – | –
17 | Cn1c(C(=NOCc2csc(C#CC3CC3)n2)c2ccccc2)noc1=O [Example 17] | 99 | 3.76^[a] | – | – | –
18 | Cn1oc(=O)nc1C(=NOCc1csc(C#CCc2ccccc2)n1)c1ccccc1 [Example 18] | 98 | 3.74^[a] | – | – | –
19 | Cn1c(C(=NOCc2csc(C#CCc3ccccc3)n2)c2ccccc2)noc1=O [Example 19] | 90 | 4.37^[a] | 79 | – | –
20 | Cn1oc(=O)nc1C(=NOCc1csc(C=CCc2ccccc2)n1)c1ccccc1 [Example 20] | – | 3.85^[a] | – | – | –
21 | Cn1c(C(=NOCc2cccc(C=CC3CC3)n2)c2ccccc2)noc1=O [Example 21] | – | 3.48^[a] | – | – | –
22 | Cn1oc(=O)nc1C(=NOCc1csc(C=CC2CCCCC2)n1)c1ccccc1 [Example 22] | 95 | 4.64^[a] | 71 | – | –
23 | Cn1c(C(=NOCc2cccc(C=Cc3ccccc3)n2)c2ccccc2)noc1=O [Example 23] | 92 | 4.37^[a] | 97 | – | –
